According to patent US5530126A, “Process for the preparation of substituted 6-(pyrazol-3yl)-1,4-benzoxazin-3-ones” (Monsanto Company, priority 1994, dated 1996):

Legend:
Type in all cases: in vivo
Annual bluegrass [1] = test: Pre-emergence herbicide test; settings: read-out: % plant inhibition (Anbg); for inhibition at 1120 g/ha: 1.12 kg/ha; for inhibition at 11210 g/ha: 11.21 kg/ha
Outline: (§1)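 Readout: % inhibition per species, observed ~10-14 d after seeding and treatment. Treatment: known amount of active in acetone or water onto seed bed, covered with untreated soil; greenhouse, watered from below.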

Barnyardgrass [2] = test: Pre-emergence herbicide test; settings: Echinochloa crus-galli, read-out: % plant inhibition (Bygr); for inhibition at 1120 g/ha: 1.12 kg/ha; for inhibition at 11210 g/ha: 11.21 kg/ha
Outline: as §1

Cocklebur [3] = test: Pre-emergence herbicide test; settings: Xanthium strumarium, read-out: % plant inhibition (Cobu); for inhibition at 1120 g/ha: 1.12 kg/ha; for inhibition at 11210 g/ha: 11.21 kg/ha
Outline: as §1

Downy Brome [4] = test: Pre-emergence herbicide test; settings: Bromus tectorum, read-out: % plant inhibition (Dobr); for inhibition at 1120 g/ha: 1.12 kg/ha; for inhibition at 11210 g/ha: 11.21 kg/ha
Outline: as §1

Indian Mustard [5] = test: Pre-emergence herbicide test; settings: Brassica juncea, read-out: % plant inhibition (Inmu); for inhibition at 1120 g/ha: 1.12 kg/ha; for inhibition at 11210 g/ha: 11.21 kg/ha
Outline: as §1

Morningglory [6] = test: Pre-emergence herbicide test; settings: Ipomoea, read-out: % plant inhibition (Mogl); for inhibition at 1120 g/ha: 1.12 kg/ha; for inhibition at 11210 g/ha: 11.21 kg/ha
Outline: as §1

Seedling johnsongrass [7] = test: Pre-emergence herbicide test; settings: Sorghum halepense, read-out: % plant inhibition (Sejg); for inhibition at 1120 g/ha: 1.12 kg/ha; for inhibition at 11210 g/ha: 11.21 kg/ha
Outline: as §1

Velvetleaf [8] = test: Pre-emergence herbicide test; settings: Abutilon theophrasti, read-out: % plant inhibition (Vele); for inhibition at 1120 g/ha: 1.12 kg/ha; for inhibition at 11210 g/ha: 11.21 kg/ha
Outline: as §1

Wild buckwheat [9] = test: Pre-emergence herbicide test; settings: Fallopia convolvulus, read-out: % plant inhibition (Wibw); for inhibition at 1120 g/ha: 1.12 kg/ha; for inhibition at 11210 g/ha: 11.21 kg/ha
Outline: as §1

Yellow nutsedge [10] = test: Pre-emergence herbicide test; settings: Cyperus, read-out: % plant inhibition (Yens); for inhibition at 1120 g/ha: 1.12 kg/ha; for inhibition at 11210 g/ha: 11.21 kg/ha
Outline: as §1

Annual bluegrass [11] = test: Post-emergence herbicide test; settings: read-out: % plant inhibition (Anbg); for inhibition at 1120 g/ha: 1.12 kg/ha; for inhibition at 11210 g/ha: 11.21 kg/ha
Outline: (§2)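 Scoring: percent inhibition relative to control, usually 11 days post-treatment, with a later look near 25 days in some instances. Plants had been grown in greenhouse pans for two to three weeks before atomizer spraying at 1870 L/Ha.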

Barnyardgrass [12] = test: Post-emergence herbicide test; settings: Echinochloa crus-galli, read-out: % plant inhibition (Bygr); for inhibition at 1120 g/ha: 1.12 kg/ha; for inhibition at 11210 g/ha: 11.21 kg/ha
Outline: as §2

Cocklebur [13] = test: Post-emergence herbicide test; settings: Xanthium strumarium, read-out: % plant inhibition (Cobu); for inhibition at 1120 g/ha: 1.12 kg/ha; for inhibition at 11210 g/ha: 11.21 kg/ha
Outline: as §2

Downy Brome [14] = test: Post-emergence herbicide test; settings: Bromus tectorum, read-out: % plant inhibition (Dobr); for inhibition at 1120 g/ha: 1.12 kg/ha; for inhibition at 11210 g/ha: 11.21 kg/ha
Outline: as §2

Indian Mustard [15] = test: Post-emergence herbicide test; settings: Brassica juncea, read-out: % plant inhibition (Inmu); for inhibition at 1120 g/ha: 1.12 kg/ha; for inhibition at 11210 g/ha: 11.21 kg/ha
Outline: as §2

Morningglory [16] = test: Post-emergence herbicide test; settings: Ipomoea, read-out: % plant inhibition (Mogl); for inhibition at 1120 g/ha: 1.12 kg/ha; for inhibition at 11210 g/ha: 11.21 kg/ha
Outline: as §2

Seedling johnsongrass [17] = test: Post-emergence herbicide test; settings: Sorghum halepense, read-out: % plant inhibition (Sejg); for inhibition at 1120 g/ha: 1.12 kg/ha; for inhibition at 11210 g/ha: 11.21 kg/ha
Outline: as §2

Velvetleaf [18] = test: Post-emergence herbicide test; settings: Abutilon theophrasti, read-out: % plant inhibition (Vele); for inhibition at 1120 g/ha: 1.12 kg/ha; for inhibition at 11210 g/ha: 11.21 kg/ha
Outline: as §2

Wild buckwheat [19] = test: Post-emergence herbicide test; settings: Fallopia convolvulus, read-out: % plant inhibition (Wibw); for inhibition at 1120 g/ha: 1.12 kg/ha; for inhibition at 11210 g/ha: 11.21 kg/ha
Outline: as §2

Yellow nutsedge [20] = test: Post-emergence herbicide test; settings: Cyperus, read-out: % plant inhibition (Yens); for inhibition at 1120 g/ha: 1.12 kg/ha; for inhibition at 11210 g/ha: 11.21 kg/ha
Outline: as §2

| SMILES | inhibition at 1120 g/ha (Annual bluegrass [1]) [%] | inhibition at 1120 g/ha (Barnyardgrass [2]) [%] | inhibition at 1120 g/ha (Cocklebur [3]) [%] | inhibition at 1120 g/ha (Downy Brome [4]) [%] | inhibition at 1120 g/ha (Indian Mustard [5]) [%] | inhibition at 1120 g/ha (Morningglory [6]) [%] | inhibition at 1120 g/ha (Seedling johnsongrass [7]) [%] | inhibition at 1120 g/ha (Velvetleaf [8]) [%] | inhibition at 1120 g/ha (Wild buckwheat [9]) [%] | inhibition at 1120 g/ha (Yellow nutsedge [10]) [%] | inhibition at 1120 g/ha (Annual bluegrass [11]) [%] | inhibition at 1120 g/ha (Barnyardgrass [12]) [%] | inhibition at 1120 g/ha (Cocklebur [13]) [%] | inhibition at 1120 g/ha (Downy Brome [14]) [%] | inhibition at 1120 g/ha (Indian Mustard [15]) [%] | inhibition at 1120 g/ha (Morningglory [16]) [%] | inhibition at 1120 g/ha (Seedling johnsongrass [17]) [%] | inhibition at 1120 g/ha (Velvetleaf [18]) [%] | inhibition at 1120 g/ha (Wild buckwheat [19]) [%] | inhibition at 1120 g/ha (Yellow nutsedge [20]) [%] | further results |
| --- | --- | --- | --- | --- | --- | --- | --- | --- | --- | --- | --- | --- | --- | --- | --- | --- | --- | --- | --- | --- | --- |
| CCOC(=O)CON=Cc1cc(-c2nn(C)c(C(F)(F)F)c2Cl)c(F)cc1Cl [Compound 129] | 0 | 20 | 90 | 40 | 90 | 100 | 60 | 100 | 100 | 0 | 40 | 80 | 100 | 80 | 90 | 90 | 90 | 100 | 100 | 30 |  |
| CCC(C)OC(=O)c1cc(-c2nn(C)c(C(F)(F)F)c2Cl)c(F)cc1Cl (stereo not drawn) [Compound 136] | 90 | 70 | 80 | 100 | 90 | 80 | 90 | 90 | 100 | 0 | 100 | 100 | 100 | 100 | 100 | 100 | 100 | 100 | 100 | 10 |  |
| CCOC(=O)C(C)Oc1cc(-c2nn(C)c(C(F)(F)F)c2Cl)c(F)cc1Br (stereo not drawn) [Compound 97] | 80 | 50 | 90 | 80 | 90 | 40 | 50 | 100 | 100 | 20 | 70 | 100 | 100 | 90 | 100 | 90 | 60 | 100 | 100 | 50 |  |
| Cn1nc(-c2cc(C(Br)Br)c(Cl)cc2F)c(Cl)c1C(F)(F)F [Compound 132, 4-chloro-3-[4-chloro-5-(dibromomethyl)-2-fluorophenyl]-1-methyl-5-(trifluoromethyl)-1H-pyrazole] |  |  |  |  |  |  |  |  |  |  |  |  |  |  |  |  |  |  |  |  | inhibition at 11210 g/ha (Annual bluegrass [1]): 60%; inhibition at 11210 g/ha (Barnyardgrass [2]): 90%; inhibition at 11210 g/ha (Cocklebur [3]): 70%; inhibition at 11210 g/ha (Downy Brome [4]): 80%; inhibition at 11210 g/ha (Indian Mustard [5]): 90%; inhibition at 11210 g/ha (Morningglory [6]): 100%; inhibition at 11210 g/ha (Seedling johnsongrass [7]): 70%; inhibition at 11210 g/ha (Velvetleaf [8]): 100%; inhibition at 11210 g/ha (Wild buckwheat [9]): 100%; inhibition at 11210 g/ha (Yellow nutsedge [10]): 30%; inhibition at 11210 g/ha (Annual bluegrass [11]): 60%; inhibition at 11210 g/ha (Barnyardgrass [12]): 100%; inhibition at 11210 g/ha (Cocklebur [13]): 100%; inhibition at 11210 g/ha (Downy Brome [14]): 80%; inhibition at 11210 g/ha (Indian Mustard [15]): 100%; inhibition at 11210 g/ha (Morningglory [16]): 100%; inhibition at 11210 g/ha (Seedling johnsongrass [17]): 100%; inhibition at 11210 g/ha (Velvetleaf [18]): 100%; inhibition at 11210 g/ha (Wild buckwheat [19]): 100%; inhibition at 11210 g/ha (Yellow nutsedge [20]): 30% |
| CCOC(=O)CSCc1cc(-c2nn(C)c(C(F)(F)F)c2Cl)c(F)cc1Cl [Compound 123] | 0 | 30 | 50 | 70 | 80 | 100 | 40 | 100 | 90 | 30 | 0 | 50 | 70 | 60 | 30 | 100 | 50 | 100 | 90 | 20 |  |
| Cn1nc(-c2cc(C(C)(C)C#N)c(Cl)cc2F)c(Cl)c1C(F)(F)F [Compound 103] | 20 | 20 | 0 | 70 | 40 | 60 | 40 | 50 | 100 | 0 | 40 | 80 | 60 | 30 | 70 | 80 | 70 | 100 | 100 | 10 |  |
| COC(=O)Cc1cc(-c2nn(C)c(C(F)(F)F)c2Cl)c(F)cc1Cl [Compound 110] | 0 | 20 | 50 | 0 | 80 | 70 | 0 | 100 | 70 | 0 | 30 | 70 | 60 | 20 | 30 | 80 | 40 | 100 | 100 | 20 |  |
| CCOC(=O)C(C)OC(=O)c1cc(-c2nn(C)c(C(F)(F)F)c2Cl)c(F)cc1Cl (stereo not drawn) [Compound 138, 2-Chloro-5-(4-chloro-1-methyl-5-(trifluoromethyl)-1H-pyrazol-3-yl)-4-fluorobenzoic acid, 2-ethoxy-1-methyl-2-oxoethyl ester] | 40 | 50 | 100 | 90 | 100 | 100 | 30 | 100 | 100 | 20 | 100 | 100 | 100 | 100 | 100 | 100 | 100 | 100 | 100 | 20 |  |
| Cn1nc(C(F)(F)Cl)c(Cl)c1-c1ccc(Cl)cc1 [Compound 67] |  |  |  |  |  |  |  |  |  |  |  |  |  |  |  |  |  |  |  |  | inhibition at 11210 g/ha (Annual bluegrass [1]): 40%; inhibition at 11210 g/ha (Barnyardgrass [2]): 0%; inhibition at 11210 g/ha (Cocklebur [3]): 0%; inhibition at 11210 g/ha (Downy Brome [4]): 40%; inhibition at 11210 g/ha (Indian Mustard [5]): 50%; inhibition at 11210 g/ha (Morningglory [6]): 90%; inhibition at 11210 g/ha (Seedling johnsongrass [7]): 40%; inhibition at 11210 g/ha (Velvetleaf [8]): 80%; inhibition at 11210 g/ha (Wild buckwheat [9]): 90%; inhibition at 11210 g/ha (Yellow nutsedge [10]): 0%; inhibition at 11210 g/ha (Annual bluegrass [11]): 20%; inhibition at 11210 g/ha (Barnyardgrass [12]): 40%; inhibition at 11210 g/ha (Cocklebur [13]): 20%; inhibition at 11210 g/ha (Downy Brome [14]): 40%; inhibition at 11210 g/ha (Indian Mustard [15]): 40%; inhibition at 11210 g/ha (Morningglory [16]): 70%; inhibition at 11210 g/ha (Seedling johnsongrass [17]): 80%; inhibition at 11210 g/ha (Velvetleaf [18]): 80%; inhibition at 11210 g/ha (Wild buckwheat [19]): 100%; inhibition at 11210 g/ha (Yellow nutsedge [20]): 20% |
